From US11524934B2, “Phenylamine compounds” (PI INDUSTRIES LTD., priority 2017, dated 2022)

Key:
Pyricularia oryzae = test: microbe, parasite or virus in culture; type: cell-based; details: 168 h, read-out: control
Fusarium culmorum = Fusarium culmorum (Foot rot of cereals) in vitro test, radial growth on Potato Dextrose Agar; type: cell-based; details: 168 h, read-out: control
Phakopsora pachyrhizi = Phakopsora pachyrhizi test in soybean (in vivo on plants), preventive activity; details: preventive spray on soybean plants, inoculated one day after treatment, disease severity rated vs untreated check
Experimental: Example 8 (In Vivo on Plants): Phakopsora pachyrhizi Test in Soybean
Compounds were dissolved in 2% DMSO/Acetone & then mixed with water to the calibrated spray volume of 50 ml and poured into the spray bottles for further applications.
To test the preventive activity of compounds, healthy young soybean plants raised in the greenhouse were sprayed with active compound preparation at the stated application rates inside the spray cabinets using hallowcone nozzles. One day after treatment, the plants were inoculated with spore suspension containing 2.1×10^6 Phakopsora pachyrhizi inoculum. The inoculated plants were then kept in greenhouse chamber at 25° C. temperature & 90% Relative Humidity for disease expression.
A visual assessment of compound's performance was carried out by rating the disease severity (0-100% scale) on treated plants on 3, 7, 10 & 15 days after application. Efficacy (% control) of the compounds was calculated by comparing the disease rating in the treatment with the one of the untreated control. The sprayed plants were also assessed for compound's plant compatibility by recording symptoms like necrosis, chlorosis & stunting.

Botrytis cinerea = Botrytis cinerea (Gray mold) in vitro test, radial growth on Potato Dextrose Agar; details: 168 h, read-out: control
Experimental: (§1) Compounds of present invention were assessed for activity against one or more of the following: Biological Test Examples, in vitro test
Botrytis cinerea (Gray mold): Compounds were dissolved in 0.3% DMSO & then added to Potato Dextrose Agar medium just prior to dispensing it into Petri dishes. 5 ml medium with compound in the desired concentration was dispensed into 60 mm sterile Petri-plates. After solidification each plate was seeded with 5 mm size mycelial disc taken form periphery of actively growing virulent culture plate. Plates were incubated in growth chambers at 22° C. temperature & 90% Relative Humidity for seven days and radial growth was measured.

Colletotrichum capsici = Colletotrichum capsici (anthracnose) in vitro test, radial growth on Potato Dextrose Agar; details: Colletotrichum truncatum, 168 h, read-out: control
Experimental: Colletotrichum capsici (anthracnose): Compounds were dissolved in 0.3% DMSO & then added to Potato Dextrose Agar medium just prior to dispensing it into Petri dishes. 5 ml medium with compound in the desired concentration was dispensed into 60 mm sterile petri-plates. After solidification each plate was seeded with 5 mm size mycelial disc taken form periphery of actively growing virulent culture plate. Plates were incubated in growth chambers at 25° C. temperature & 60% Relative Humidity for seven days and radial growth was measured.

Septoria lycopersici = Septoria lycopersici (Leaf spot of tomato) in vitro test, radial growth on Potato Dextrose Agar; details: 168 h, read-out: control
Experimental: Septoria lycopersici (Leaf spot of tomato): Compounds were dissolved in 0.3% DMSO & then added to Potato Dextrose Agar medium just prior to dispensing it into Petri dishes. 5 ml medium with compound in the desired concentration was dispensed into 60 mm sterile petri-plates. After solidification each plate was seeded with 5 mm size mycelial disc taken form periphery of actively growing virulent culture plate. Plates were incubated in growth chambers at 25° C. temperature & 70% Relative Humidity for seven days and radial growth was measured.

Alternaria solani = Alternaria solani (early blight of tomato/potato) in vitro test, radial growth on Potato Dextrose Agar; details: 168 h, read-out: control
Experimental: as §1

Rhizoctonia solani = details: 168 h, read-out: control
Experimental: Rhizoctonia solani (Rice sheath blight/Potato black scurf): Compounds were dissolved in 0.3% DMSO & then added to Potato Dextrose Agar medium just prior to dispensing it into Petri dishes. 5 ml medium with compound in the desired concentration was dispensed into 60 mm sterile Petri-plates. After solidification each plate was seeded with 5 mm size mycelial disc taken form periphery of actively growing virulent culture plate. Plates were incubated in growth chambers at 25° C. temperature & 60% Relative Humidity for seven days and radial growth was measured.

SMILES | inhibition of growth at 300 ppm (Pyricularia oryzae) [%] | inhibition of growth at 300 ppm (Fusarium culmorum) [%] | pest or weed control at 500 ppm (Phakopsora pachyrhizi) [%] | inhibition of growth at 300 ppm (Botrytis cinerea) [%] | inhibition of growth at 300 ppm (Colletotrichum capsici) [%] | inhibition of growth at 300 ppm (Septoria lycopersici) [%] | inhibition of growth at 300 ppm (Alternaria solani) [%] | inhibition of growth at 300 ppm (Rhizoctonia solani) [%]
CCN(C)C=Nc1cc(C)c(C(=O)COc2ccccc2)cc1C [Compound 2, N′-(2,5-dimethyl-4-(2-phenoxyacetyl)phenyl)-N-ethyl-N-methylformimidamide] | > 70 | 70 | > 90 | > 70 | > 70 | > 70 | > 70 | > 70
CCN(C)C=Nc1cc(C)c(C(=O)CSc2ccc(C)c(C)c2)cc1C [Compound 11, N′-(4-(2-((3,4-dimethylphenyl)thio)acetyl)-2,5-dimethylphenyl)-N-ethyl-N-methylformimidamide] | > 70 | 70 | > 90 | > 70 | > 70 | > 70 | > 70 | > 70
CCN(C)C=Nc1cc(C)c(C(=O)COc2cccc(C)c2)cc1C [Compound 12, N′-(2,5-dimethyl-4-(2-(m-tolyloxy)acetyl)phenyl)-N-ethyl-N-methylformimidamide] | > 70 | 70 | > 90 | > 70 | > 70 | > 70 | > 70 | > 70
CCN(C)C=Nc1cc(C)c(C(=O)COc2cccc(Cl)c2)cc1C [Compound 13, N′-(4-(2-(3-chlorophenoxy)acetyl)-2,5-dimethylphenyl)-N-ethyl-N-methylformimidamide] | > 70 | 70 | > 90 | > 70 | > 70 | > 70 | > 70 | > 70
CCN(C)C=Nc1cc(C)c(C(=O)CN(C)c2ccc(Cl)cc2)cc1C [Compound 84, N′-(4-(N-(4-chlorophenyl)-N-methylglycyl)-2,5-dimethylphenyl)-N-ethyl-N-methylformimidamide] | > 70 | 70 |  | > 70 | > 70 | > 70 | > 70 | > 70
CCN(C)C=Nc1cc(C)c(C(=O)COc2c(C)cccc2Br)cc1C [Compound 88, N′-(4-(2-(2-bromo-6-methylphenoxy)acetyl)-2,5-dimethylphenyl)-N-ethyl-N-methylformimidamide] | > 70 | 70 |  | > 70 | > 70 | > 70 | > 70 | > 70
CCN(C)C=Nc1cc(C)c(C(=O)CSc2ccc(F)cc2F)cc1C [Compound 102, N′-(4-(2-((2,4-difluorophenyl)thio)acetyl)-2,5-dimethylphenyl)-N-ethyl-N-methylformimidamide] | > 70 | 70 |  | > 70 | > 70 | > 70 | > 70 | > 70
CCN(C)C=Nc1cc(C)c(C(=O)CSc2c(F)cccc2F)cc1C [Compound 103, N′-(4-(2-((2,6-difluorophenyl)thio)acetyl)-2,5-dimethylphenyl)-N-ethyl-N-methylformimidamide] | > 70 | 70 |  | > 70 | > 70 | > 70 | > 70 | > 70
